Results published in US8691822B2, “Dihydropteridinone derivatives, preparation process and pharmaceutical use thereof” (Jiangsu Hengrui Medicine Co., Ltd., priority 2009, dated 2014).
Read-outs that look alike come from different tables or passages of the source.

Legend:
[1] = tested on: xenografts of HT-116 human colon cancer; test: Therapeutic effects against xenografts of HT-116 human colon cancer in nude mice; type: in vivo; settings: nude mice bearing HT-116 xenografts
Procedure: The therapeutic effect of Example 1 against xenografts of HT-116 human colon cancer in nude mice was estimated.
Preparation method: the compound of Example 1 was prepared to corresponding concentration by using normal saline.
BALB/cA-nude mice, 6 to 7 weeks old, ♀, purchased from Slaccas Experimental Animal LTD., CO.
Nude mice were hypodermic inoculated HT-116 human colon cancer cell. After tumors grew to 60-150 mm^3, mice were randomly divided into teams (d0).
The volume of tumors and the weigh of the mice were measured and recorded for 2-3 times per week.
The calculation formula of the volume of tumor (V) is: V=½×a×b^2, a: length of tumor, b: width of tumor.

[2] = tested on: human cervix cancer cells Hela; test: Plk Cell Proliferation Inhibition Assay (CCK8, 72 hours); type: cell-based; settings: Hela cells highly expressing Plk
From the text: The following in vitro assay is to determine the activity of the compounds of the present invention for inhibiting the proliferation of human cervix cancer cells Hela, which has high expression of Plk.
The in vitro cellular assay described here is to determine the activity of the tested compounds for inhibiting the proliferation of cancer cells, which has high expression of Plk. The activity is represented by the […]. The general procedures for the assay are given as follows: The Hela cells highly expressing Plk (Institute of biochemistry and cell biology) were seeded to 96-well cell culture plate at a suitable concentration (exp 3000 cells/ml medium). The cells then were cultured in carbon dioxide (CO2) incubator and grew overnight. Then, the cell culture medium was replaced by fresh one with tested compounds added in it at serial concentrations (general 7 to 9 concentrations). Then the cells were put back to the incubator and cultured for continuous 72 hours. 72 hours later, the activity of the tested compounds for inhibiting the cell proliferation was determined by using CCK8 (cell counting kit-8, Dojindo, NO:CK04) method. IC50 value on tested cells were calculated by the data of inhibition rates of serial concentrations of the tested compounds.

[3] = Pharmacokinetics assay in rats (plasma concentration by LC/MS/MS); type: in vivo; settings: SD rats, 25 mg/kg; for AUC: read-out: Area Under Curve AUC; for half-life: read-out: Half-Life t½ (converted); for MRT: read-out: Mean Residence Time MRT
Procedure: The compound 37 of the present invention was administrated intravenous injection or intragastrically to rats to determine the drug concentration in plasma at different time points by LC/MS/MS method. The pharmacokinetic behavior of the compounds of the present invention was studied and evaluated in rats.
The right amount of tested compound was dissolved in 0.5 mL of DMSO, added with 1.5 mL of 0.1 M HCl, then diluted with normal saline to 2.5 mg/mL of suspension before use.
8 Healthy adult adult SD rats, male and female in half, were divided into 2 groups. After an overnight fast, the rats were administered intragastrically or administered via tail intravenous injection at a dose of 25.0 mg/kg.
25 μL of rat plasmas taken at various time points after administration were mixed with 20 μL of internal standard solution and 150 μL methanol for 3 minutes by using a vortexer and the mixture was centrifuged for 10 minutes at 13,500 rpm. 5 μL of the supernatant was analyzed by LC-MS/MS.
Plasma concentration was used as the abscissa, the ratio of chromatographic peak area between the sample and internal standard was used as the ordinate, the linear regression was carried out by the weighted least square method (w=1/x^2). The main pharmacokinetic parameters were calculated by DAS 2.0 software.

[4] = both sexes, rat, plasma, po, intragastric administration
[5] = both sexes, rat, plasma, intravenous injection

CC[C@@H]1C(=O)N(C)c2cnc(Nc3ccc(C(=O)NC4CCN(C)CC4)c4c3OCC4)nc2N1C1CCCC1 [Example 1, 7-[[(7R)-8-Cyclopentyl-7-ethyl-5-methyl-6-oxo-7H-pteridin-2-yl]amino]-N-(1-methyl-piperidyl)-2,3-dihydrobenzofuran-4-carboxamide]
toxicity (in words) [1]: less toxity | IC50 [2]: 0.9 nM

CC[C@@H]1C(=O)N(C)c2cnc(Nc3ccc(C(=O)NC[C@H]4CN5CCC[C@H]5CO4)c4c3OCC4)nc2N1C1CCCC1 [Example 26, N-[[(3S,8aS)-3,4,6,7,8,8a-Hexahydro-1H-pyrrolo[2,1-c][1,4]oxazin-3-yl]methyl]-7-[[(7R)-8-cyclopentyl-7-ethyl-5-methyl-6-oxo-7H-pteridin-2-yl]amino]-2,3-dihydrobenzofuran-4-carboxamide]
IC50 [2]: 3 nM

CC[C@@H]1C(=O)N(C)c2cnc(Nc3ccc(C(=O)NC[C@H]4CN5CCC[C@@H]5CO4)c4c3OCC4)nc2N1C1CCCC1 [Example 27, N-[[(3S,8aR)-3,4,6,7,8,8a-Hexahydro-1H-pyrrolo[2,1-c][1,4]oxazin-3-yl]methyl]-7-[[(7R)-8-cyclopentyl-7-ethyl-5-methyl-6-oxo-7H-pteridin-2-yl]amino]-2,3-dihydrobenzofuran-4-carboxamide]
IC50 [2]: 1 nM

CC[C@@H]1C(=O)N(C)c2cnc(Nc3ccc(C(=O)NC[C@@H]4CN5CCC[C@@H]5CO4)c4c3OCC4)nc2N1C1CCCC1 [Example 28, N-[[(3R,8aR)-3,4,6,7,8,8a-Hexahydro-1H-pyrrolo[2,1-c][1,4]oxazin-3-yl]methyl]-7-[[(7R)-8-cyclopentyl-7-ethyl-5-methyl-6-oxo-7H-pteridin-2-yl]amino]-2,3-dihydrobenzofuran-4-carboxamide]
IC50 [2]: 3 nM

CC[C@@H]1C(=O)N(C)c2cnc(Nc3ccc(C(=O)NC4CCN(C)CC4)c4c3OC(CN(C)C)C4)nc2N1C1CCCC1 (stereo partly drawn) [Example 29, 7-[[(7R)-8-Cyclopentyl-7-ethyl-5-methyl-6-oxo-7H-pteridin-2-yl]amino]-2-(dimethylaminomethyl)-N-(1-methyl-4-piperidyl)-2,3-dihydrobenzofuran-4-carboxamide]
IC50 [2]: 30 nM

CC[C@@H]1C(=O)N(C)c2cnc(Nc3ccc(C(=O)NC4CCN(C)CC4)c4c3OC(C)C4)nc2N1C1CCCC1 (stereo partly drawn) [Example 30, 7-[[(7R)-8-Cyclopentyl-7-ethyl-5-methyl-6-oxo-7H-pteridin-2-yl]amino]-2-methyl-N-(1-methyl-4-piperidyl)-2,3-dihydrobenzofuran-4-carboxamide]
IC50 [2]: 4 nM

CC[C@@H]1C(=O)N(C)c2cnc(Nc3ccc(C(=O)NC[C@H](O)CN4CCN(C)CC4)c4c3OCC4)nc2N1C(C)C [Example 32, 7-[[(7R)-7-Ethyl-8-isopropyl-5-methyl-6-oxo-7H-pteridin-2-yl]amino]-N-[(2S)-2-hydroxy-3-(4-methylpiperazin-1-yl)propyl]-2,3-dihydrobenzofuran-4-carboxamide]
IC50 [2]: 9 nM

CC[C@@H]1C(=O)N(C)c2cnc(Nc3ccc(C(=O)NC[C@@H](O)CN4CCN(C)CC4)c4c3OCC4)nc2N1C(C)C [Example 33, 7-[[(7R)-7-Ethyl-8-isopropyl-5-methyl-6-oxo-7H-pteridin-2-yl]amino]-N-[(2R)-2-hydroxy-3-(4-methylpiperazin-1-yl)propyl]-2,3-dihydrobenzofuran-4-carboxamide]
IC50 [2]: 7 nM

CC[C@@H]1C(=O)N(C)c2cnc(Nc3ccc(C(=O)N[C@H]4CC[C@H](N5CCN(CC6CC6)CC5)CC4)c4c3OCC4)nc2N1C1CCCC1 [Example 34, 7-[[(7R)-8-Cyclopentyl-7-ethyl-5-methyl-6-oxo-7H-pteridin-2-yl]amino]-N-[(trans)-4-[4-(cyclopropylmethyl)piperazin-1-yl]cyclohexyl]-2,3-dihydrobenzofuran-4-carboxamide]
IC50 [2]: 0.7 nM

CC[C@@H]1C(=O)N(C)c2cnc(Nc3ccc(C(=O)NC[C@@H](CN4CCN(CC5CC5)CC4)OC)c4c3OCC4)nc2N1C1CCCC1 [Example 35, 7-[[(7R)-8-Cyclopentyl-7-ethyl-5-methyl-6-oxo-7H-pteridin-2-yl]amino]-N-[(2S)-3-[4-(cyclopropylmethyl)piperazin-1-yl]-2-methoxy-propyl]-2,3-dihydrobenzofuran-4-carboxamide]
IC50 [2]: 2 nM

CC[C@@H]1C(=O)N(C)c2cnc(Nc3ccc(C(=O)NC[C@@H](CN4CCN(CC5CC5)CC4)OC)c4c3OCC4)nc2N1C(C)C [Example 36, N-[(2S)-3-[4-(Cyclopropylmethyl)piperazin-1-yl]-2-methoxy-propyl]-7-[[(7R)-7-ethyl-8-isopropyl-5-methyl-6-oxo-7H-pteridin-2-yl]amino]-2,3-dihydrobenzofuran-4-carboxamide]
IC50 [2]: 7 nM

CC[C@@H]1C(=O)N(C)c2cnc(Nc3ccc(C(=O)N[C@H]4CC[C@H](N5CCN(CC6CC6)CC5)CC4)c4c3OCC4)nc2N1C(C)C [Example 37, N-[(trans)-4-[4-(Cyclopropylmethyl)piperazin-1-yl]cyclohexyl]-7-[[(7R)-7-ethyl-8-isopropyl-5-methyl-6-oxo-7H-pteridin-2-yl]amino]-2,3-dihydrobenzofuran-4-carboxamide]
IC50 [2]: 0.7 nM | Clearance CL/F ([3]; intravenous injection): 5.5 ± 0.5 mL/min/kg | bioavailability ([3]; both sexes, rat, plasma, oral, intragastric vs intravenous, read-out: oral bioavailability F): 59.4% | Vd/F ([3]; both sexes, rat, plasma, po, intragastric administration, read-out: Apparent Distribution Volume Vz/F): 13.6 ± 1 L/kg | AUC [3, 4]: 45600 ± 9230 ng·h/mL | CL/F ([3]; both sexes, rat, plasma, po, intragastric administration, read-out: Clearance CL/F (converted)): 9.5 mL/min/kg | half-life [3, 4]: 17.2 ± 4.4 h | MRT [3, 4]: 26.1 ± 5 h | Cmax ([3]; both sexes, rat, plasma, po, intragastric administration, read-out: Plasma Conc. Cmax): 1860 ± 150 ng/mL | AUC [3, 5]: 76700 ± 6200 ng·h/mL | half-life [3, 5]: 17.3 ± 3.3 h | MRT [3, 5]: 22.8 ± 4.3 h

CC[C@@H]1C(=O)N(C)c2cnc(Nc3ccc(C(=O)NC[C@@H](CN4CCN(C)CC4)OC)c4c3OCC4)nc2N1C1CCCC1 [Example 38, 7-[[(7R)-8-Cyclopentyl-7-ethyl-5-methyl-6-oxo-7H-pteridin-2-yl]amino]-N-[(2S)-2-methoxy-3-(4-methylpiperazin-1-yl)propyl]-2,3-dihydrobenzofuran-4-carboxamide]
IC50 [2]: 2 nM

CC[C@@H]1C(=O)N(C)c2cnc(Nc3ccc(C(=O)NC[C@@H](CN4CCN(C)CC4)OC)c4c3OCC4)nc2N1C(C)C [Example 39, 7-[[(7R)-7-Ethyl-8-isopropyl-5-methyl-6-oxo-7H-pteridin-2-yl]amino]-N-[(2S)-2-methoxy-3-(4-methylpiperazin-1-yl)propyl]-2,3-dihydrobenzofuran-4-carboxamide]
IC50 [2]: 6 nM

CC[C@@H]1C(=O)N(C)c2cnc(Nc3ccc(C(=O)NC4CCN(C)CC4)c4c3OC(COC)C4)nc2N1C1CCCC1 (stereo partly drawn) [Example 40, 7-[[(7R)-8-Cyclopentyl-7-ethyl-5-methyl-6-oxo-7H-pteridin-2-yl]amino]-2-(methoxymethyl)-N-(1-methyl-4-piperidyl)-2,3-dihydrobenzofuran-4-carboxamide]
IC50 [2]: 2 nM

CC[C@@H]1C(=O)N(C)c2cnc(Nc3ccc(C(=O)N[C@H]4CC[C@@H](N5CCN(CC6CC6)CC5)CC4)c4c3OCC4)nc2N1C(C)C [Example 44, N-[(cis)-4-[4-(Cyclopropylmethyl)piperazin-1-yl]cyclohexyl]-7-[[(7R)-7-ethyl-8-isopropyl-5-methyl-6-oxo-7H-pteridin-2-yl]amino]-2,3-dihydrobenzofuran-4-carboxamide]
IC50 [2]: 5 nM
